Experiments:
D(2) dopamine receptor = D(2) dopamine receptor (Homo sapiens, UniProt P14416); experiment: Binding affinity for human recombinant dopamine receptor D2L
D(3) dopamine receptor = D(3) dopamine receptor (Homo sapiens, UniProt P35462)
Description: Binding affinity for human recombinant dopamine receptor D3

D(4) dopamine receptor = target: T1, D(4) dopamine receptor (Homo sapiens, UniProt P21917); experiment: Binding affinity for human recombinant dopamine receptor D4.4
T1 sequence (P21917 whole entry): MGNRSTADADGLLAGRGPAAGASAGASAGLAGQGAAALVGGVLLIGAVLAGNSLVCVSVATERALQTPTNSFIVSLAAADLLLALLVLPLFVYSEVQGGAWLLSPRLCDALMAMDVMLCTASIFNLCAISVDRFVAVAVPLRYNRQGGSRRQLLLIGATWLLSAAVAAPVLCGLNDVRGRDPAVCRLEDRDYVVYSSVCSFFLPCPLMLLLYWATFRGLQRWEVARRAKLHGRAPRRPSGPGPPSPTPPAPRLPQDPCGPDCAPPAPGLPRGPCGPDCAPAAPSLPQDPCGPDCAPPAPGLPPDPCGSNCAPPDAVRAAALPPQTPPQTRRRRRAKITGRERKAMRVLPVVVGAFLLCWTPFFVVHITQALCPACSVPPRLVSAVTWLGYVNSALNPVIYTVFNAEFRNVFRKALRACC

D(1A) dopamine receptor = D(1A) dopamine receptor (Homo sapiens, UniProt P21728)
Sequence of D(1A) dopamine receptor (P21728 whole entry): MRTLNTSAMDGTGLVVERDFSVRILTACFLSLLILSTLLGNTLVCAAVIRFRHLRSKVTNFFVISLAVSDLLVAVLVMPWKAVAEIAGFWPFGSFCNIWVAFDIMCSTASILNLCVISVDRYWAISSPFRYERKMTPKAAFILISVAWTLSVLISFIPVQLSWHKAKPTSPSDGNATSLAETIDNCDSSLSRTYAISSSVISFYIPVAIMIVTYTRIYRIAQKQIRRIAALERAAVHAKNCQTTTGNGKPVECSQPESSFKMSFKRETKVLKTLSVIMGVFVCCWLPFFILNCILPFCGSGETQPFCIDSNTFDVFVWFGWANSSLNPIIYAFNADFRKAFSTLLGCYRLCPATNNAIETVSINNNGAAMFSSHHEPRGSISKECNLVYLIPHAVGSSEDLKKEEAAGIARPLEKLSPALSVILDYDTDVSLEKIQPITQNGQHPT
Description: Binding affinity for human recombinant dopamine receptor D1

D(1B) dopamine receptor = D(1B) dopamine receptor (Homo sapiens, UniProt P21918); experiment: Binding affinity for human recombinant dopamine receptor D5
Sequence of D(1B) dopamine receptor (P21918 whole entry): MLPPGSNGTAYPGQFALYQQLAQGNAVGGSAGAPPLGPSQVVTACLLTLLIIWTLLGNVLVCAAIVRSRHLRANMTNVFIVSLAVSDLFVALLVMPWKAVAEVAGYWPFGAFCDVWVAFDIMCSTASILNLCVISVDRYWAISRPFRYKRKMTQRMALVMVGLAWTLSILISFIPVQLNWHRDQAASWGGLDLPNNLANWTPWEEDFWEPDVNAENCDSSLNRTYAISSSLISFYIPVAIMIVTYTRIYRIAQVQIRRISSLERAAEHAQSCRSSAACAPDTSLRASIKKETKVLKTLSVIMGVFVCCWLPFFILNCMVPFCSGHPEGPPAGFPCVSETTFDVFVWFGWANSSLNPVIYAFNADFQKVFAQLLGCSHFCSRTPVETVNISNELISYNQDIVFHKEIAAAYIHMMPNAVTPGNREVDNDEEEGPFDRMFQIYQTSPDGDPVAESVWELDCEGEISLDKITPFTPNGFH

Sequence of D(2) dopamine receptor (P14416 whole entry): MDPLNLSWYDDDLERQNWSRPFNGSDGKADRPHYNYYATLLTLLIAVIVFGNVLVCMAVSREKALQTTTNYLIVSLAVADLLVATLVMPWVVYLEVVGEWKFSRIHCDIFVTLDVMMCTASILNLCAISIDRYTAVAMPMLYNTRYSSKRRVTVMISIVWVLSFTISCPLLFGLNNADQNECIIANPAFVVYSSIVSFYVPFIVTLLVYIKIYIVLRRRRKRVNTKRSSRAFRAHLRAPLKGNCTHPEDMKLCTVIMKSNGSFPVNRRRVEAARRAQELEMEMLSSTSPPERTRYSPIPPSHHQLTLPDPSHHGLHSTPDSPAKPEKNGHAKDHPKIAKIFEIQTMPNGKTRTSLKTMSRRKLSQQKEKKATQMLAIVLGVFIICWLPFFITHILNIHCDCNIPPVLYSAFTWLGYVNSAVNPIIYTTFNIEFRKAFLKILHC
Sequence of D(3) dopamine receptor (P35462 whole entry): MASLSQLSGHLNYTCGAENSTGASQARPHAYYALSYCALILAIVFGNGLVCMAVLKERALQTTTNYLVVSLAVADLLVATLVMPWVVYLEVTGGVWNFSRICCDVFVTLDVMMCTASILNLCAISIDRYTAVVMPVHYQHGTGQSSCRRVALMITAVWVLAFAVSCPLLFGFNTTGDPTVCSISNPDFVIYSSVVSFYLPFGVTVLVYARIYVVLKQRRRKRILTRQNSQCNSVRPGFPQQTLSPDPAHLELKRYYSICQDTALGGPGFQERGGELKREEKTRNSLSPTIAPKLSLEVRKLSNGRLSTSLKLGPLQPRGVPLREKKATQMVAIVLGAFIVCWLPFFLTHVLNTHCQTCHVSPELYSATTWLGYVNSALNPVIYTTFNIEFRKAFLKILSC

Row | SMILES | Ki (D(2) dopamine receptor) | Ki (D(3) dopamine receptor) | Ki (D(4) dopamine receptor) | Ki (D(1A) dopamine receptor) | Ki (D(1B) dopamine receptor)
1 | c1ccc(Cc2ccccc2NCCN2CCCC2)cc1 | > 10000 nM | 4650 nM | > 10000 nM | > 10000 nM | 
2 | c1ccc(Cc2ccccc2OCCN2CCCC2)cc1 | > 10000 nM | 1820 nM | 1430 nM | 379 nM | 951 nM
3 | c1ccc(Cc2ccccc2OCCN2CCN(c3ccccc3)CC2)cc1 | 4190 nM | 2860 nM | > 10000 nM | 1480 nM | 620 nM
4 | CC1CN(CCOc2ccccc2Cc2ccccc2)CCO1 (stereo not given) | > 10000 nM | > 10000 nM | > 10000 nM | 1680 nM | 
5 | OC(c1ccccc1)c1ccccc1OCCN1CCCC1 (stereo not given) | 6280 nM | > 10000 nM | > 10000 nM | 2620 nM | 
6 | c1ccc(Cc2ccccc2OCCN2CCOCC2)cc1 | > 10000 nM | > 10000 nM | 6480 nM | 201 nM | 366 nM
7 | CN(C)CCOc1ccccc1Cc1ccccc1 [PHENYLTOLOXAMINE] | 2740 nM | > 10000 nM | 2760 nM | 343 nM | 414 nM
8 | O=C(c1ccccc1)c1ccccc1OCCN1CCCC1 | 5320 nM | 2410 nM | > 10000 nM | 1650 nM | 

These reach a lower Ki (D(2) dopamine receptor). Values come first.

Row | Ki (D(2) dopamine receptor) | Ki (D(3) dopamine receptor) | Ki (D(4) dopamine receptor) | Ki (D(1A) dopamine receptor) | Ki (D(1B) dopamine receptor) | SMILES
9 | 2020 nM | 4670 nM | > 10000 nM | 1960 nM |  | CCN(CC)CCOc1ccccc1Cc1ccccc1 [ETOLOXAMINE]
10 | 1020 nM | 7800 nM | 4480 nM | 33.7 nM | 43 nM | c1ccc(Cc2ccccc2OCCN2CCCCC2)cc1
11 | 1010 nM | 2920 nM | 1260 nM | 113 nM | 113 nM | c1ccc(Cc2ccccc2OCCCN2CCCC2)cc1
12 | 274 nM | 1380 nM | 375 nM | 3.2 nM | 0.57 nM | CN1CCOc2cc(O)ccc2Cc2ccccc2CC1
13 | 158 nM | 1600 nM | 546 nM | 35.5 nM | 1.8 nM | COc1ccc2c(c1)OCCN(C)CCc1ccccc1C2

Reference: ChEMBL document CHEMBL1138672, “Dopamine/serotonin receptor ligands. 9. Oxygen-containing midsized heterocyclic ring systems and nonrigidized analogues. A step toward dopamine D5 receptor selectivity” (J Med Chem, 2004)
